# Measurements published in patent publication US20240216343A1, “ENDOTHELIAL IK AND SK CHANNEL ACTIVATION TO TREAT PULMONARY HYPERTENSION” (UNIVERSITY OF VIRGINIA PATENT FOUNDATION, priority 2023, published 2024).
# “Also recorded” adds a separate entry of the source.
# How the values were obtained:
# large PAs = large PAs ~560 μm internal diameter; mice exposed to chronic hypoxia; reference (50); cited from earlier work
# [1] = system: IK/SK channels in SMCs from PAs; experiment: Whole-cell patch-clamp in freshly isolated SMCs from small PAs; assay type: cell-based, mouse; conditions: NS309 1 μmol/L
# Experimental: For SMC isolation (27), arterial segments were transferred to a 12×75 mm borosilicate glass culture tube containing 1 mL dissociation solution (145 mmol/L NaCl; 4 mmol/L KCl; 1 mmol/L MgCl2; 10 mmol/L HEPES; 0.05 mmol/L CaCl2), 10 mmol/L glucose; pH 7.3) and 0.5 mg/mL bovine serum albumin (BSA) and incubated for 10 minutes at room temperature (˜24° C.). The solution was then replaced with 1 mL dissociation solution containing 1 mg/mL papain (Sigma Aldrich) and 0.5 mg/mL dithiothreitol (Sigma Aldrich), and incubation was continued at 37° C. for 20 minutes. […]
# Whole-cell currents were measured at room temperature using conventional whole-cell patch-clamp electrophysiology. […] The pipette solution for conventional patch clamp consisted of 10 mmol/L HEPES, 123.2 mmol/L KCl, 10 mmol/L NaCl, 5.5 mmol/L MgCl2, 0.2 mmol/L CaCl2) and 5 mmol/L HEDTA (adjusted to pH 7.2 with 16.8 mm KOH) and contained 3 μm free-Ca^2+ and 1 mmol/L free-Mg^2+, as calculated using the Max-Chelator program (Chris Patton; Stanford University; Stanford; CA; USA). […] Data were acquired using a Multiclamp 700B amplifier connected to a Digidata 1550B system and analyzed using Clampfit 11.1 software (Molecular Devices, San Jose, CA, USA).
# NS309-induced ionic currents were measured in freshly isolated SMCs (FIG. 4A) from PAs in whole-cell patch-clamp experiments (FIGS. 4B and 4C).
# fourth-order PAs = experiment: Pressure myography of mouse fourth-order PAs
# From the text: Mouse fourth-order PAs (˜50 μm) were cannulated on glass micropipettes in a pressure myography chamber (The Instrumentation and Model Facility; University of Vermont; Burlington; VT; USA) and pressurized to a physiological pressure of 15 mm Hg (24). Briefly, freshly dissected lungs were placed in ice cold HEPES buffer in a dissection plate. The left lung was stretched and pinned down, with ventral side facing up. First, pulmonary veins, and then the airway were cut open to gain access to the pulmonary arteries underneath. Once PAs were visible, they were gently separated from surrounding tissue (25). Arteries were superfused with bicarbonate-physiological salt solution (PSS; 119 mmol/L NaCl; 4.7 mmol/L KCl; 1.2 mmol/L KH2PO4; 1.2 mmol/L MgCl2 hexahydrate; 2.5 mmol/L CaCl2) dihydrate; 7 mmol/L dextrose; and 24 mmol/L NaHCO3) at 37° ° C. and bubbled with 20% O2/5% CO2 to maintain the pH at 7.4. Approximately 20% PAs from normal mice develop myogenic tone, whereas ˜65% PA from Su+CH mice show myogenic tone at 15 mm Hg. Due to the relatively small percentage of PAs from normal mice showing myogenic tone, we pre-constricted all PAs with 30 nmol/L U46619 (a thromboxane A2 receptor agonist). […] U46619 was added to the chamber immediately, before the arteries could develop myogenic tone. Before measuring vascular reactivity, arteries were treated with NS309 (1 μmol/L), a direct activator of endothelial IK/SK channels, to assess endothelial health. […] Changes in arterial diameter were recorded at a 60-ms frame rate using a charge-coupled device camera and edge-detection software (IonOptix LLC; Westwood; MA; USA) (11, 26). At the end of each experiment, Ca^2+-free PSS (119 mmol/L NaCl; 4.7 mmol/L KCl; 1.2 mmol/L KH2PO4; 1.2 mmol/L MgCl2 hexahydrate; 7 mmol/L dextrose; 24 mmol/L NaHCO3; and 5 mmol/L EGTA) was applied to assess the maximum passive diameter. Percent constriction was calculated by:
# [formula] • where Diameterbefore is the diameter of the artery before treatment and Diameterafter is the diameter after treatment. Percent dilation was calculated by:
# [formula] • where Diameterbasal is the stable diameter before drug treatment, Diameterdilated is the diameter after drug treatment, and Diameterca-free is the maximum passive diameter.
smiles,measurement,setting,value
"O=C1Nc2c(ccc(Cl)c2Cl)C1=NO [NS309, 6,7-dichloro-1H-indole-2,3-dione 3-oxime]",Increase of dilation of large PAs in chronic hypoxia,large PAs,~3 fold
same,"Outward currents at 0 mV in SMCs, N vs Su+CH",[1],not different between SMCs from PAs of N and Su+CH mice
same,"Dilation of PAs that developed myogenic tone, N vs Su+CH",fourth-order PAs; NS309 1 μmol/L,not different between N and Su+CH groups
same,"Dilation of small PAs, N vs Su+CH","fourth-order PAs; NS309 0.3-1 μmol/L, PAs at 15 mm Hg pre-constricted with U46619 30 nmol/L",not different between N and Su+CH mice; also recorded: not different between PAs from control and CH+Su mice
